Test results published in the supplement of paper PMC10307832.

Legend:
Experiment in all cases: relative viability (nuclei count vs DMSO), 5 days (fraction); higher = more cells survive
BI-D1870 + Palbociclib = compound: CC(C)CCN1c2nc(Nc3cc(F)c(O)c(F)c3)ncc2N(C)C(=O)C1C [BI-D1870] + CC(=O)c1c(C)c2cnc(Nc3ccc(N4CCNCC4)cn3)nc2n(C2CCCC2)c1=O [Palbociclib] (partner 0.5 µM)
How it was run: (§1)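 Lung cancer cell lines were seeded in 1536-well plates and dosed by pin tool the next day, with either a single drug or a fixed anchor-drug dose combined with five library-drug doses (not always all listed) spaced in √10 steps. Five days later, one step fixed the cells and stained their nuclei (final 0.05% Triton X-100, 1% formaldehyde, 1 ug/ml Hoechst), and nuclei were counted on 4× images. Relative viability is the nuclei count in treated wells divided by the count in vehicle wells, and each value is the median of duplicate plates.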

Zebularine + Decitabine = compound: O=c1ncccn1[C@@H]1O[C@H](CO)[C@@H](O)[C@H]1O [Zebularine] + Nc1ncn([C@H]2C[C@H](O)[C@@H](CO)O2)c(=O)n1 [Decitabine] (partner 2 µM)
How it was run: as §1

BI-D1870 + Pemetrexed = compound: CC(C)CCN1c2nc(Nc3cc(F)c(O)c(F)c3)ncc2N(C)C(=O)C1C [BI-D1870] + Nc1nc2[nH]cc(CCc3ccc(C(=O)N[C@@H](CCC(=O)O)C(=O)O)cc3)c2c(=O)[nH]1 [Pemetrexed] (partner 0.2 µM)
How it was run: as §1

Zebularine + Alpelisib = compound: O=c1ncccn1[C@@H]1O[C@H](CO)[C@@H](O)[C@H]1O [Zebularine] + Cc1nc(NC(=O)N2CCC[C@H]2C(N)=O)sc1-c1ccnc(C(C)(C)C(F)(F)F)c1 [Alpelisib] (partner 2 µM)
How it was run: as §1

Row | Cell Line | relative viability (BI-D1870 + Palbociclib; first compound 0.04 µM) | relative viability (BI-D1870 + Palbociclib; first compound 0.1265 µM) | relative viability (BI-D1870 + Palbociclib; first compound 0.4 µM) | relative viability (BI-D1870 + Palbociclib; first compound 1.265 µM) | relative viability (BI-D1870 + Palbociclib; first compound 4 µM) | relative viability (Zebularine + Decitabine; first compound 1 µM) | relative viability (Zebularine + Decitabine; first compound 3.162 µM) | relative viability (Zebularine + Decitabine; first compound 10 µM) | relative viability (Zebularine + Decitabine; first compound 31.62 µM) | relative viability (Zebularine + Decitabine; first compound 100 µM) | relative viability (BI-D1870 + Pemetrexed; first compound 0.04 µM) | relative viability (BI-D1870 + Pemetrexed; first compound 0.1265 µM) | relative viability (BI-D1870 + Pemetrexed; first compound 0.4 µM) | relative viability (BI-D1870 + Pemetrexed; first compound 1.265 µM) | relative viability (BI-D1870 + Pemetrexed; first compound 4 µM) | relative viability (Zebularine + Alpelisib; first compound 1 µM) | relative viability (Zebularine + Alpelisib; first compound 3.162 µM) | relative viability (Zebularine + Alpelisib; first compound 10 µM) | relative viability (Zebularine + Alpelisib; first compound 31.62 µM) | relative viability (Zebularine + Alpelisib; first compound 100 µM)
1 | NCI-H1755 | 0.432 | 0.413 | 0.438 | 0.481 | 0.435 | 0.713 | 0.715 | 0.703 | 0.786 | 0.615 | 0.497 | 0.469 | 0.408 | 0.465 | 0.408 | 1.07 | 1.03 | 0.538 | 0.92 | 0.61
2 | HCC-78 | 0.456 | 0.489 | 0.405 | 0.462 | 0.454 | 0.732 | 0.643 | – | 0.663 | 0.449 | 1.06 | 0.889 | 0.947 | 0.916 | 0.919 | 0.358 | 0.155 | 0.104 | 0.326 | 0.292
3 | IA-LM | – | – | – | – | – | – | – | – | – | – | – | – | – | – | – | 0.768 | 0.584 | 0.494 | 1.13 | 0.996
4 | NCI-H322M | 0.492 | 0.475 | 0.461 | 0.483 | 0.501 | 0.712 | 0.636 | 0.614 | 0.696 | 0.675 | 0.632 | 0.564 | 0.596 | 0.59 | 0.517 | 0.732 | 0.756 | 0.772 | 0.673 | 0.676
5 | NCI-H3122 | 0.187 | 0.176 | 0.211 | 0.267 | 0.216 | 0.507 | 0.475 | 0.411 | 0.411 | 0.532 | 0.187 | 0.194 | 0.203 | 0.222 | 0.202 | 0.991 | 0.822 | 0.573 | 0.871 | 0.703
6 | COR-L23 | 0.281 | 0.24 | 0.315 | 0.257 | 0.278 | 0.407 | 0.368 | 0.408 | 0.363 | 0.202 | 0.181 | 0.209 | 0.195 | 0.205 | 0.201 | 0.872 | 0.926 | 0.431 | 0.361 | 0.265
7 | NCI-H2087 | 0.239 | 0.2 | 0.265 | 0.196 | 0.208 | 0.322 | 0.294 | 0.207 | 0.279 | 0.223 | 0.697 | 0.671 | 0.75 | 0.71 | 0.703 | 1.31 | 1.01 | 0.684 | 0.778 | 0.309
8 | LC-2-ad | 0.577 | 0.471 | 0.509 | 0.477 | 0.401 | 0.83 | 0.796 | 0.554 | 0.72 | 0.329 | 0.292 | 0.267 | 0.264 | 0.275 | 0.253 | 1.03 | 0.865 | 0.539 | 0.491 | 0.135
9 | NCI-H1915 | 0.577 | 0.504 | 0.469 | 0.451 | 0.376 | 0.284 | 0.278 | 0.261 | 0.265 | 0.282 | 0.473 | 0.489 | 0.458 | 0.419 | 0.381 | 1.18 | 1.05 | 0.984 | 1.05 | 0.93
10 | ChaGo-K-1 | 0.907 | 0.876 | 0.887 | 0.978 | 0.949 | 0.534 | 0.566 | 0.432 | 0.232 | 0.199 | 0.255 | 0.245 | 0.253 | 0.242 | 0.235 | – | – | – | – | –
11 | NCI-H2342 | 0.508 | 0.511 | 0.528 | 0.528 | 0.559 | 0.744 | 0.749 | 0.699 | 0.815 | 0.696 | 0.759 | 0.768 | 0.764 | 0.81 | 0.816 | – | – | – | – | –
12 | NCI-H1299 | – | – | – | – | – | – | – | – | – | – | – | – | – | – | – | 1.05 | 1.16 | 0.836 | 1.16 | 0.529
13 | NCI-H1650 | 0.372 | 0.316 | 0.338 | 0.321 | 0.335 | 0.347 | 0.305 | 0.335 | 0.378 | 0.269 | 0.405 | 0.358 | 0.338 | 0.427 | 0.373 | – | – | – | – | –
14 | SW 900 | 0.697 | 0.478 | 0.511 | 0.536 | 0.517 | 0.512 | 0.4 | – | 0.43 | 0.432 | 0.44 | 0.463 | 0.471 | 0.516 | 0.434 | – | – | – | – | –
15 | NCI-H596 | – | – | – | – | – | 0.84 | 1.07 | 0.894 | 1.06 | 0.98 | 0.458 | 0.47 | 0.45 | 0.576 | 0.454 | 0.476 | 0.462 | 0.427 | 0.566 | 0.483
16 | NCI-H727 | 0.594 | 0.579 | 0.648 | 0.64 | 0.66 | 0.855 | 0.903 | 0.867 | 0.84 | 0.826 | – | – | – | – | – | – | 0.531 | 0.564 | 0.665 | 0.485
17 | NCI-H1648 | 0.285 | 0.273 | – | 0.308 | 0.259 | 0.456 | 0.478 | 0.368 | 0.487 | 0.438 | 0.619 | 0.588 | – | 0.802 | 0.661 | – | – | – | – | –
18 | NCI-H522 | 1.03 | 1.06 | 0.943 | 0.975 | 0.788 | 0.621 | 0.577 | 0.641 | 0.61 | 0.639 | 1.24 | 1.01 | 0.978 | 1 | 0.984 | – | – | – | – | –
19 | A549 | – | – | – | – | – | 0.219 | 0.251 | – | 0.267 | 0.185 | – | – | – | – | – | 0.923 | 0.658 | – | 0.625 | 0.317
20 | NCI-H1563 | – | – | – | – | – | – | – | – | – | – | 0.869 | 0.793 | 0.776 | 0.776 | 0.841 | 0.932 | 0.888 | 0.927 | 0.955 | 0.909
21 | ABC-1 | 0.973 | 0.708 | 0.667 | 0.849 | 0.679 | 1.13 | 0.68 | 0.888 | 0.577 | 0.495 | – | – | – | – | – | 1.43 | 1.01 | 0.84 | 0.891 | 0.536
